Assay results reported in US20060276407A1, “Methods of treating hepatitis C virus” (Schering Corporation, priority 2005, published 2006).

Test system: HCV-RNA viral load
Assay: Effect on HCV-RNA viral load, 14 days dosing of HCV positive genotype 1 interferon non responders (Example 3)
Format: in vivo
Experimental: Multiple escalating doses of compound of Formula Ia were administered for 14 days to HCV positive subjects who were genotype 1 Interferon-a (with or without ribavirin) non responders. In a randomized, placebo controlled, third party blind study, multiple doses of 100 mg BID, 200 mg BID, 400 mg BID, 400 mg TID, and 600 mg TID of compound of Formula Ia or placebo in a 3:1 ratio with or without food were evaluated. […]
Serial HCV-RNA data were evaluated for antiviral activity and for the change from baseline in the serum HCV RNA levels.

Question: `CC(C)(C)NC(=O)N[C@H](C(=O)N1C[C@H]2[C@@H]([C@H]1C(=O)NC(CC1CCC1)C(=O)C(N)=O)C2(C)C)C(C)(C)C` (mixture of isomers) [Formula Ia, (1 R, 5S)-N-[3-Amino-1-(Cyclobutylmethyl)-2,3-Dioxopropyl]-3-[2(S)-[[[(1,1-Dimethylethyl)Amino]Carbonyl]Amino]-3,3-Dimethyl-1-Oxobutyl]-6,6-Dimethyl-3-Azabicyclo[3.1.0]Hexan-2(S)-Carboxamide] was tested. Which “Viral load (HCV-RNA) reduction from baseline, average minimum reduction” value (400 mg TID, 14 days) did it give?
Answer: 2 logs

Question: What about the “HCV-RNA following discontinuation of the 14-day treatment” value (all patients) of the same molecule?
Answer: returned to baseline levels
